Legend:
NCI-H322M = experiment: cells; conditions: Homo sapiens, 48 h; for CC50: read-out: LC50
K-562 = experiment: cells; conditions: Homo sapiens, K562, 48 h; for GI50: K-562, 48 h; for CC50: read-out: LC50
CAKI-1 = experiment: cells; conditions: Homo sapiens, CAKI-1, 48 h; for CC50: read-out: LC50
MALME-3M = experiment: cells; conditions: Homo sapiens, 48 h; for CC50: read-out: LC50
OVCAR-8 = experiment: cells; conditions: Homo sapiens, OVCAR-8, 48 h; for CC50: read-out: LC50
MDA-MB-468 = experiment: cells; conditions: Homo sapiens, MDA-MB-468, 48 h; for CC50: read-out: LC50
RXF 393 = experiment: cells; conditions: Homo sapiens, RXF 393, 48 h; for CC50: read-out: LC50
SN12C = experiment: cells; conditions: Homo sapiens, 48 h; for CC50: read-out: LC50
HL-60(TB) = experiment: cells; conditions: Homo sapiens, HL-60, 48 h; for CC50: read-out: LC50
SNB-75 = experiment: cells; conditions: Homo sapiens, SNB-75, 48 h; for CC50: read-out: LC50
UACC-257 = experiment: cells; conditions: Homo sapiens, UACC-257, 48 h; for CC50: read-out: LC50
SK-MEL-28 = experiment: cells; conditions: Homo sapiens, SK-MEL-28, 48 h; for CC50: read-out: LC50
A498 = experiment: cells; conditions: Homo sapiens, A498, 48 h; for CC50: read-out: LC50
SF-295 = experiment: cells; conditions: Homo sapiens, SF-295, 48 h; for CC50: read-out: LC50
KM12 = experiment: cells; conditions: Homo sapiens, KM12, 48 h; for CC50: read-out: LC50
TK-10 = experiment: cells; conditions: Homo sapiens, TK-10, 48 h; for CC50: read-out: LC50
OVCAR-4 = experiment: cells; conditions: Homo sapiens, OVCAR-4, 48 h; for CC50: read-out: LC50
OVCAR-3 = experiment: cells; conditions: Homo sapiens, OVCAR-3, 48 h; for CC50: read-out: LC50
[1] = Hemolytic activity, spectrophotometric; format: cell-based, human; conditions: human, human red blood cells (huRBC), 5% hematocrit, 200 μg/mL, 37 °C
OVCAR-5 = experiment: cells; conditions: Homo sapiens, OVCAR-5, 48 h; for CC50: read-out: LC50
COLO 205 = experiment: cells; conditions: Homo sapiens, COLO 205, 48 h; for CC50: read-out: LC50
HT29 = experiment: cells; conditions: Homo sapiens, HT-29, 48 h; for CC50: read-out: LC50
SF-268 = experiment: cells; conditions: Homo sapiens, SF-268, 48 h; for CC50: read-out: LC50
SF-539 = experiment: cells; conditions: Homo sapiens, SF-539, 48 h; for CC50: read-out: LC50, SF-539, 48 h
NCI-H460 = experiment: cells; conditions: Homo sapiens, NCI-H460, 48 h; for CC50: read-out: LC50
786-0 = experiment: cells; conditions: Homo sapiens, 786-0, 48 h; for CC50: read-out: LC50
HCC-2998 = experiment: cells; conditions: Homo sapiens, HCC 2998, 48 h; for CC50: read-out: LC50
CCRF-CEM = experiment: cells; conditions: Homo sapiens, 48 h; for CC50: read-out: LC50
M14 = experiment: cells; conditions: Homo sapiens, M14, 48 h; for CC50: read-out: LC50
HCT-15 = experiment: cells; conditions: Homo sapiens, HCT-15, 48 h; for CC50: read-out: LC50
HS 578T = experiment: cells; conditions: Homo sapiens, 48 h; for CC50: read-out: LC50
UACC-62 = experiment: cells; conditions: Homo sapiens, UACC-62, 48 h; for CC50: read-out: LC50
UO-31 = experiment: cells; conditions: Homo sapiens, UO-31, 48 h; for CC50: read-out: LC50
MCF7 = experiment: cells; conditions: Homo sapiens, MCF7, 48 h; for CC50: read-out: LC50
EKVX = experiment: cells; conditions: Homo sapiens, 48 h; for CC50: read-out: LC50
SK-OV-3 = experiment: cells; conditions: Homo sapiens, SK-OV-3, 48 h; for CC50: read-out: LC50
SK-MEL-5 = experiment: cells; conditions: Homo sapiens, SK-MEL-5, 48 h; for CC50: read-out: LC50
HOP-62 = experiment: cells; conditions: Homo sapiens, HOP-62, 48 h; for CC50: read-out: LC50

## COc1ccc(/C=C/C(=O)c2ccc(S(=O)(=O)NCCNc3nc(Nc4ccc(F)cc4)nc(N(C)C)n3)cc2)cc1 [24c]
NCI-H322M
  GI50: 10.2 µM
  CC50: > 100 µM
K-562
  GI50: 3.99 µM
  CC50: > 100 µM
CAKI-1
  GI50: 3.34 µM
  CC50: > 100 µM
MALME-3M
  GI50: 10.6 µM
  CC50: > 100 µM
OVCAR-8
  GI50: 9.51 µM
  CC50: > 100 µM
MDA-MB-468
  GI50: 2.57 µM
  CC50: 52.6 µM
RXF 393
  GI50: 2.59 µM
  CC50: 41.7 µM
SN12C
  GI50: 3.6 µM
  CC50: 44.5 µM
HL-60(TB)
  GI50: 3.6 µM
  CC50: > 100 µM
SNB-75
  GI50: 3.57 µM
  CC50: > 100 µM
UACC-257
  GI50: 13.3 µM
  CC50: > 100 µM
SK-MEL-28
  GI50: 5.23 µM
  CC50: 47.3 µM
A498
  GI50: 10 µM
  CC50: 87.8 µM
SF-295
  GI50: 5.05 µM
  CC50: 62.4 µM
KM12
  GI50: 4.01 µM
  CC50: 72 µM
TK-10
  GI50: 8.09 µM
  CC50: > 100 µM
OVCAR-4
  GI50: 4.12 µM
  CC50: > 100 µM
OVCAR-3
  GI50: 5.01 µM
  CC50: 59.4 µM
[1]
  hemolysis at 24 h, 200 µg/mL: 0.1%
OVCAR-5
  GI50: 8.43 µM
  CC50: > 100 µM
COLO 205
  GI50: 3.46 µM
  CC50: 45.7 µM
HT29
  GI50: 1.83 µM
  CC50: 7.63 µM
SF-268
  GI50: 4.43 µM
  CC50: > 100 µM
SF-539
  GI50: 10.3 µM
  CC50: 51.2 µM
NCI-H460
  GI50: 4.11 µM
  CC50: > 100 µM
786-0
  GI50: 6.33 µM
  CC50: > 100 µM
HCC-2998
  GI50: 5.47 µM
  CC50: 43.2 µM
CCRF-CEM
  GI50: 4.09 µM
  CC50: > 100 µM
M14
  GI50: 4.27 µM
  CC50: 99.6 µM
HCT-15
  GI50: 2.71 µM
  CC50: 27.4 µM
HS 578T
  GI50: 4.68 µM
  CC50: > 100 µM
UACC-62
  GI50: 4.79 µM
  CC50: 51.6 µM
UO-31
  GI50: 3.78 µM
  CC50: > 100 µM
MCF7
  GI50: 1.93 µM
  CC50: 46.1 µM
EKVX
  GI50: 4.12 µM
  CC50: > 100 µM
SK-OV-3
  GI50: 13.9 µM
  CC50: > 100 µM
SK-MEL-5
  GI50: 3.5 µM
  CC50: 36.4 µM
HOP-62
  GI50: 17.1 µM
  CC50: > 100 µM

## CN(C)c1nc(NCCNS(=O)(=O)c2ccc(C(=O)/C=C/c3ccc(Cl)cc3)cc2)nc(Nc2ccc(F)cc2)n1 [24e]
NCI-H322M
  GI50: 9.36 µM
  CC50: 24.9 µM
K-562
  GI50: 3.29 µM
  CC50: > 100 µM
CAKI-1
  GI50: 4.93 µM
  CC50: 19.5 µM
MALME-3M
  GI50: 12.8 µM
  CC50: 26.4 µM
OVCAR-8
  GI50: 10.2 µM
  CC50: 23.7 µM
MDA-MB-468
  GI50: 3.71 µM
  CC50: 14.8 µM
RXF 393
  GI50: 3.09 µM
  CC50: 15.1 µM
SN12C
  GI50: 3.79 µM
  CC50: 15.9 µM
HL-60(TB)
  GI50: 4.39 µM
  CC50: > 100 µM
SNB-75
  GI50: 5.6 µM
  CC50: 25.7 µM
UACC-257
  GI50: 8.36 µM
  CC50: 21.8 µM
SK-MEL-28
  GI50: 6.77 µM
  CC50: 20.1 µM
A498
  GI50: 10.5 µM
  CC50: 23.1 µM
SF-295
  GI50: 6.11 µM
  CC50: 19.8 µM
KM12
  GI50: 2.97 µM
  CC50: 9.1 µM
TK-10
  GI50: 11.7 µM
  CC50: 30.3 µM
OVCAR-4
  GI50: 5.92 µM
  CC50: 22 µM
OVCAR-3
  GI50: 3.16 µM
  CC50: 11.9 µM
[1]
  hemolysis at 24 h, 200 µg/mL: 9.1%
OVCAR-5
  GI50: 10.7 µM
  CC50: 22.6 µM
COLO 205
  GI50: 5.96 µM
  CC50: 18.7 µM
HT29
  GI50: 2.15 µM
  CC50: 5.72 µM
SF-268
  GI50: 6.21 µM
  CC50: 23.5 µM
SF-539
  GI50: 10.1 µM
  CC50: 22 µM
NCI-H460
  GI50: 3.38 µM
  CC50: 13.8 µM
786-0
  GI50: 7.28 µM
  CC50: 20.2 µM
HCC-2998
  GI50: 2.48 µM
  CC50: 6.9 µM
CCRF-CEM
  GI50: 3.75 µM
  CC50: > 100 µM
M14
  GI50: 4.14 µM
  CC50: 15.3 µM
HCT-15
  GI50: 4.62 µM
  CC50: 16.9 µM
HS 578T
  GI50: 11.4 µM
  CC50: 58.1 µM
UACC-62
  GI50: 5.41 µM
  CC50: 18.7 µM
UO-31
  GI50: 4 µM
  CC50: 16.6 µM
MCF7
  GI50: 2.28 µM
  CC50: 6.33 µM
EKVX
  GI50: 3.11 µM
  CC50: 14.7 µM
SK-OV-3
  GI50: 11.5 µM
  CC50: 27.7 µM
SK-MEL-5
  GI50: 5.89 µM
  CC50: 18.8 µM
HOP-62
  GI50: 12.5 µM
  CC50: 27.5 µM

From PMC11012124, “Synthesis of Novel Triazine-Based Chalcones and 8,9-dihydro-7H-pyrimido[4,5-b][1,4]diazepines as Potential Leads in the Search of Anticancer, Antibacterial and Antifungal Agents” (International Journal of Molecular Sciences, 2024)
